From patent US20200199647A1, “ASSAY FOR SCREENING MODULATORS OF HOLOPHOSPHATASE ACTIVITY” (UNITED KINGDOM RESEARCH AND INNOVATION, priority 2017, published 2020)

Key:
R15A [1] = molecular target: T1, R15A (Homo sapiens, UniProt O75807); assay: Binding of R15A to biotinylated compounds on Streptavidin beads and elution
T1 construct: PPP1R15A amino acids 325-636 (R15A); His6 (C); made in house; host or cells: E. coli BL21 pLysS
Experimental: Purified R15A protein was diluted to 1 μM in IP buffer (50 mM Tris [pH 7.4], 150 mM NaCl, 0.1% Tween20, 10% glycerol). 1 μM R15A, in 100 μl volume, was pre-cleared with 25 μl of Pierce Streptavidin Magnetic Beads (ThermoFisher) for 1 h at 4° C. with rotation at 20 rpm. […] Samples were incubated for 3 h at 4° C. with rotation at 20 rpm. The supernatant was removed, and samples were thoroughly washed and transferred to a fresh Eppendorf. The beads were washed thoroughly with 5×1 ml interaction buffer, with 30 min incubation each time, and then resuspended with 50 μl of 4% SDS Laemmli sample buffer. Samples were run on 4-12% NuPAGE Bis-Tris gels (Life Technologies), and analysed by immunoblotting using α-MBP HRP (E8038) (NEB) (to reveal R15A). […] Samples were incubated for 10 min at 4° C. with 20 rpm rotation. 30 μl of supernatant was added to 10 μl of 16% SDS Laemmli sample buffer. 10 μl sample was run on 4-12% NuPAGE Bis-Tris gel (Life Technologies), and analysed by immunoblotting using α-MBP HRP (E8038) (NEB) (to reveal R15A).

R15A [2] = molecular target: T1, R15A; assay: Light scattering to monitor aggregation of R15A; details: 1 mM compound, 5 μM R15A, 10 min, 20° C.
Experimental: Samples were incubated for 10 min at RT. […] Therefore, light scattering was measured at 380 nm emission, 380 nm absorption to monitor the presence of aggregates. For each sample, 100 data points were collected over a period of 10 min, at 20° C., with constant stirring.

R15A-PP1c = molecular target: T2, R15A-PP1c (Homo sapiens, UniProt O75807); assay: In vitro dephosphorylation of P-eIF2α by recombinant R15A-PP1c holophosphatase (10 nM PP1c); format: biochemical; details: PP1c 10 nM, 1 μM P-eIF2α, compounds 100 μM, 30° C., 16 h
T2 construct: PPP1R15A amino acids 325-636 (R15A); His6 (C); made in house; host or cells: E. coli BL21 pLysS (R15A, eIF2α); E. coli BL21/pGro7 (PP1c)
T2 sequence (O75807 325-636, stated change not applied): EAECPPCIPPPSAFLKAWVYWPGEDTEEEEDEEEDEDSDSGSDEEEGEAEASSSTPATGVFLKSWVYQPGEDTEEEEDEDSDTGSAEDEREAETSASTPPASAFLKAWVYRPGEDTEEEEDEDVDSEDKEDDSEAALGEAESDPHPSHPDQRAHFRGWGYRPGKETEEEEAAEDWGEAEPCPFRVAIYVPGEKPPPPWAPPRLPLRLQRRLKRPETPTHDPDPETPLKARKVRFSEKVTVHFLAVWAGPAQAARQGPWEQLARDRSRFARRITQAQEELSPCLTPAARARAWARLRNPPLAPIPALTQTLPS
T2 sequence (P62136 7-330 partner): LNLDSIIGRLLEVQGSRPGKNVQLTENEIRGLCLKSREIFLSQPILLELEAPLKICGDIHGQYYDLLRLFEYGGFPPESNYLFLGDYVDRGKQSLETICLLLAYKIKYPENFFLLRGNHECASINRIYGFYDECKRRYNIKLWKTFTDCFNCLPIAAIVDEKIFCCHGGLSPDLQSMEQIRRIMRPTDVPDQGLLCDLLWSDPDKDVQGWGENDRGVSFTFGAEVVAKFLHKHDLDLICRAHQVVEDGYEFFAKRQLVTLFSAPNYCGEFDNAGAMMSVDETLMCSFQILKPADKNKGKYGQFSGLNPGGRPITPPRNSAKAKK
Experimental: (§1) PP1c was diluted to the appropriate concentration (as indicated in the figure legends) in dephosphorylation buffer immediately prior to use. Dephosphorylation reactions were carried out by pre-incubating diluted PP1c in the presence or absence of regulatory subunits (either […]), and/or compounds (all at 100 μM, except for Salubrinal which was used at 30 μM), for 15′ at RT. All compounds were diluted in DMSO, and DMSO vehicle was used in all control experiments.
(§2) The reaction was initiated by the addition of 1 μM P-eIF2α or ^33P Phosphorylase a substrates and then incubated at 30° C. for 16 h with shaking at 350 rpm. Reactions were stopped by addition of 4× Laemmli sample buffer. eIF2α samples were analyzed by immunoblotting or Phos-tag gels. […] Samples in FIG. 8 and FIG. 16 were run on a 15% SuperSep Phos-tag acrylamide gel (Alpha Laboratories) and visualized by staining with InstantBlue Protein Stain.

PP1c = molecular target: T3, PP1c (Homo sapiens, UniProt P62136); assay: Dephosphorylation of P-eIF2α by increasing amounts of PP1c alone; format: biochemical; details: compound 100 μM, 30° C., 16 h
T3 construct: The cDNA encoding amino acids 7-330 of human PP1cα; made in house; host or cells: E. coli BL21/pGro7 (PP1c); E. coli BL21 pLysS (eIF2α)
T3 sequence (P62136 7-330): as the sequence (P62136 7-330 partner) above
Experimental: as §1, §2

R15B = molecular target: T4, R15B (Homo sapiens, UniProt Q5SWA1); assay: Limited trypsin proteolysis of R15B (conformational change); details: 22° C.
T4 construct: PPP1R15B amino acids 340-698 (R15B); His6 (C); made in house; host or cells: E. coli BL21 pLysS
T4 sequence (Q5SWA1 340-698): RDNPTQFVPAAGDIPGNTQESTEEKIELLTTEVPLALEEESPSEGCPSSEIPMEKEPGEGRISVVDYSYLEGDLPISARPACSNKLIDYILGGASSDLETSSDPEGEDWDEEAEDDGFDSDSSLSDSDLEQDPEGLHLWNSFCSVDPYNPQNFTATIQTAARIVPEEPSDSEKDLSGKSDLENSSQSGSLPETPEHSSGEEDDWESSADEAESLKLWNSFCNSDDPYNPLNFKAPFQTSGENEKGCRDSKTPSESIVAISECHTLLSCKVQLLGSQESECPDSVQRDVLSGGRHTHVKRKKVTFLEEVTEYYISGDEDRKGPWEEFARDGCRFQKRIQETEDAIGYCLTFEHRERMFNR
Experimental: (§3) Reactions were allowed to proceed at 22° C. with shaking at 350 rpm. At time points 30 min, 1 h, 2 h or 3 h, 30 μl of sample was removed from the mix and digestion was stopped by addition of 10 μl of 16% SDS Laemmli sample buffer. Samples were run on 4-12% NuPAGE Bis-Tris gels (Life Technologies). Proteins were visualised by staining with InstantBlue Coomassie Protein Stain (Expedeon) protein stain.
(§4) Purified R15A and R15B were diluted to 3 μM in PBS, and incubated for 15′ at RT with 100 μM Raphin1, or DMSO vehicle. Reactions were initiated by addition of 5 nM of trypsin from bovine pancreas (Sigma), made up in PBS, and allowed to proceed for 5′ at 22° C., with shaking at 350 rpm. Digestion was stopped by addition of 4× Laemmli sample buffer and samples were run on 4-12% NuPAGE Bis-Tris gels (Life Technologies). Proteins were visualised by staining with InstantBlue Protein Stain.

R15A [3] = molecular target: T1, R15A; assay: Limited trypsin proteolysis of R15A (conformational change); details: 22° C.
Experimental: as §3, §4

T1 sequence (O75807 325-636, stated change not applied): as the sequence (O75807 325-636, stated change not applied) above

binding to R15A (R15A [1]; 0.5 mM biotinylated compound on Streptavidin beads, 1 μM R15A)	nature of binding to R15A (elution with excess compound) (R15A [1]; elution with 2 mM free compound)	aggregation of R15A (light scattering at 380 nm) (R15A [2])	inhibition of R15A-PP1c eIF2α holophosphatase (R15A-PP1c)	inhibition of PP1c alone (PP1c)	sensitivity of R15B to trypsin proteolysis (R15B; 100 μM compound, 0.5 μM R15B, 2.5 nM trypsin, 30 min to 3 h)	trypsin sensitivity of R15B (R15B; 100 μM Raphin1, 3 μM R15B, 5 nM trypsin, 5 min)	SMILES	sensitivity of R15A to trypsin proteolysis (R15A [3]; 100 μM compound, 0.5 μM R15A, 2.5 nM trypsin, 30 min to 3 h)	trypsin sensitivity of R15A (R15A [3]; 100 μM Raphin1, 3 μM R15A, 5 nM trypsin, 5 min)
directly bind R15A	not covalent	No aggregation	selectively inhibited R15A-PP1c	did not inhibit PP1c	No such protective effects		N=C(N)N/N=C/c1c(Cl)cccc1Cl [Guanabenz]	decreased the sensitivity of R15A to trypsin proteolysis	
			not R15A-PP1c	did not inhibit PP1c		protected R15B	NC(N)=N/N=C/c1cccc(Cl)c1Cl [Raphin1]		had no effect on the trypsin sensitivity of R15A
